Test results from patent publication US11203601B2, “Tricyclic compounds as glycogen synthase kinase 3 (GSK3) inhibitors and uses thereof” (The Broad Institute, Inc., priority 2017, dated 2021).

Assays:
GSK3β [1] = biological target: T1, GSK3β (Homo sapiens (Human), UniProt P49841); assay: Mobility shift microfluidics assay; assay type: biochemical; settings: 4.3 μM ATP, 60 minutes at room temperature
Description: (§1) Reactions were terminated by the addition of 10 mM ethylenediaminetetraacetic acid (EDTA). Substrate and product were separated electrophoretically, and fluorescence intensity of the substrate and product was determined by Labchip EZ Reader II (Caliper Life Sciences). The kinase activity was measured as percent conversion. The reactions were performed in duplicate for each sample. […] The results were analyzed by Genedata Assay Analyzer. The percent inhibition was plotted against the compound concentration, and the IC50 value was determined from the logistic dose-response curve fitting. Values are the average of at least three experiments.

GSK3α [2] = biological target: T2, GSK3α (Homo sapiens (Human), UniProt P49840); assay: Mobility shift microfluidics assay; assay type: biochemical
Description: as §1

MDR1 = assay: MDR1/MDCK assay (Example 4); assay type: in vitro ADME; settings: dog, MDCK-MDR1; for Papp A→B at 120 min, 5 μM / Papp B→A at 120 min, 5 μM: pH 7.4, 120 minutes; for efflux ratio at 120 min, 5 μM: (Papp B to A)/(Papp A to B)
Description: The MDR1/MDCK assay is run at Absorption Systems. This assay is used to determine the blood-brain barrier (BBB) penetration potential of a test compound using MDR1-MDCK cell monolayers. Catalog number EA203.
Substrate • Test compound at 5 μM in HBSSg with maximum DMSO concentration not greater than 1%. Assay System • Confluent monolayers of MDR1-MDCK cells, 7 to 11 days old. Assay Conditions • Receiver well with 1% BSA in modified Hanks buffer (HBSSg) • Apical and basolateral side at pH 7.4 • Dose two monolayers in each direction (N=2) • Dose apical side for (A to B) assessment • Dose basolateral side for (B to A) assessment • Sample both apical and basolateral sides at 120 minutes • Determine the concentrations of test compound using a generic LC-MS/MS method with a minimum 4 point calibration curve. Assay QC • The quality of the cell monolayer batch is verified using control compounds before monolayers are released for use • The quality of each monolayer used in the assay is verified by a TEER measurement and by calculating the Papp for a control compound. Solubility (SOL) 1% DMSO in PBS

GSK3β [3] = biological target: T1, GSK3β; assay: GSK3 beta biochemical assay (TR-FRET)
Description: (§2) 1 nM enzyme, 200 nM biotinylated peptide
(§3) 4 μM ATP (GSK3 alpha) or 2 μM ATP (GSK3 beta)
(§4) The reaction volume is 10 μL, and the final percent DMSO is 1%. The total volume of DMSO is therefore 100 nL. It is critical that the percentage of DMSO be controlled and consistent across the plate. […] The High control is with all assay components but no inhibitor, the low control is with all assay components but no enzyme.
(§5) Make 2× detection reagents in Invitrogen TR-FRET detection buffer for final 20 nM Strepavidin-d2, 1 nM Tb^2+-pSer641 antibody (using 20 μl as final volume). 2× detection=40 nM Strepavidin-d2, 2 nM Tb^2+-pSer641 antibody.
(§6) XLFit is used for results which are archived into a database. The data is normalized as a percentage of uninhibited control minus max inhibited controls.

GSK3α [4] = biological target: T2, GSK3α; assay: GSK3 alpha biochemical assay (TR-FRET)
Description: as §2, §3, §4, §5, §6

[5] = GSK3β TR-FRET BIOCHEMICAL (TR-FRET) GMean IC50, 2 μM ATP (Km), 100 min at room temperature
[6] = GSK3α TR-FRET BIOCHEMICAL (TR-FRET) GMean IC50, 4 μM ATP (Km), 100 min at room temperature

T1 sequence (P49841 whole entry): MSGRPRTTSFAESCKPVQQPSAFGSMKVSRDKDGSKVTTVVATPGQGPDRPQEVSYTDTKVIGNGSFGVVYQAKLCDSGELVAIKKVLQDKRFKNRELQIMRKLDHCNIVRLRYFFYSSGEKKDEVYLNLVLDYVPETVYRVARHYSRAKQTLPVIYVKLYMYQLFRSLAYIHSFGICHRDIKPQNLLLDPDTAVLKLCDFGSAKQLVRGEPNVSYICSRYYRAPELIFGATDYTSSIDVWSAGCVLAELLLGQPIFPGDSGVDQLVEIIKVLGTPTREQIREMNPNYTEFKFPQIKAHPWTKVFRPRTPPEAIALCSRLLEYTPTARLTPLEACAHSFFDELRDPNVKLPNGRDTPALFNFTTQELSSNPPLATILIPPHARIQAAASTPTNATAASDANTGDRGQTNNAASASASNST
T2 sequence (P49840 whole entry): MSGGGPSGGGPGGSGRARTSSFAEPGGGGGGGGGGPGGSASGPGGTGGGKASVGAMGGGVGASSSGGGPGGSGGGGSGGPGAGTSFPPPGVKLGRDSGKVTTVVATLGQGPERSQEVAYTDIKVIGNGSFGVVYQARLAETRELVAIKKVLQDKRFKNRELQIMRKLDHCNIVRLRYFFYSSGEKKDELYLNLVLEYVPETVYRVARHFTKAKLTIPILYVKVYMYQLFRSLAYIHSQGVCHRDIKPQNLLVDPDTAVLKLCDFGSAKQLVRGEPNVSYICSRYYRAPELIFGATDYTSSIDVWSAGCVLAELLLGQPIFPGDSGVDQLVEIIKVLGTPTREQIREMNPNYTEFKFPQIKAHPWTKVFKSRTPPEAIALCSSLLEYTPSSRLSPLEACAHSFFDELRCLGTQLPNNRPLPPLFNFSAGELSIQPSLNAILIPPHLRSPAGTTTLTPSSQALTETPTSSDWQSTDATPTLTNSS

Structure (SMILES)	IC50 (GSK3β [3]) [nM]	IC50 (GSK3α [4]) [nM]	IC50 (GSK3β [1]) [nM]	IC50 (GSK3α [2]) [nM]	other results
CC[C@@]1(c2cccc(OC)c2)C2=C(CC(C)(C)CC2=O)Nc2ncsc21 (single isomer, unassigned)	–	–	110	24	–
CC[C@@]1(c2ccccc2)C2=C(CC(C)(C)CC2=O)Nc2ncsc21 [drawing 182]	–	–	–	–	Papp A→B at 120 min, 5 μM (MDR1): 24.2 ×10⁻⁶ cm/s; Papp B→A at 120 min, 5 μM (MDR1): 62.1 ×10⁻⁶ cm/s; efflux ratio at 120 min, 5 μM (MDR1): 2.6
CC1(C)CC(=O)C2=C(C1)Nc1ncsc1[C@]2(C)c1ccccc1 [drawing 153]	–	–	384	238	–
CC1(C)CC(=O)C2=C(C1)Nc1ncsc1[C@]2(C)c1cccc(F)c1	–	–	455	203	–
CC[C@]1(c2ccccc2)C2=C(CC(C)(C)CC2=O)Nc2ncsc21	–	–	> 30000	> 30000	–
CC[C@]1(c2cccc(Cl)c2)C2=C(CC(C)(C)CC2=O)Nc2ncsc21 (single isomer, unassigned)	–	–	> 30000	> 30000	–
CC[C@@]1(c2cccc(Cl)c2)C2=C(CC(C)(C)CC2=O)Nc2ncsc21 (single isomer, unassigned)	–	–	1180	293	–
CC[C@@]1(c2ccccc2)C2=C(CC(C)(C)CC2=O)Nc2n[nH]cc21 [drawing 184]	–	–	–	–	Papp A→B at 120 min, 5 μM (MDR1): 1.26 ×10⁻⁶ cm/s; Papp B→A at 120 min, 5 μM (MDR1): 57.7 ×10⁻⁶ cm/s
[2H]c1nc2c(s1)C(CC)(c1ccccc1)C1=C(CC(C)(C)CC1=O)N2 (stereo not shown) [Compound 18]	–	–	–	–	IC50 (GSK3β [3]; [5]): 500 nM; IC50 (GSK3α [4]; [6]): 118 nM
CC1(C)CC(=O)C2=C(C1)Nc1n[nH]cc1[C@]2(C)c1ccccc1 [drawing 183]	–	–	–	–	Papp A→B at 120 min, 5 μM (MDR1): 1.82 ×10⁻⁶ cm/s; Papp B→A at 120 min, 5 μM (MDR1): 66.1 ×10⁻⁶ cm/s
CC1(C)CC(=O)C2=C(C1)Nc1ncsc1[C@]2(C)c1ccccc1 [drawing 181]	–	–	–	–	Papp A→B at 120 min, 5 μM (MDR1): 28.4 ×10⁻⁶ cm/s; Papp B→A at 120 min, 5 μM (MDR1): 62.8 ×10⁻⁶ cm/s; efflux ratio at 120 min, 5 μM (MDR1): 2.2
CCC1(c2ccccc2)C2=C(CC(C)(C)CC2=O)Nc2ncsc21 (single isomer, unassigned) [Compound 1-E1, 9-Ethyl-6,6-dimethyl-9-phenyl-5,6,7,9-tetrahydrothiazolo[4,5-b]quinolin-8(4H)-one]	–	–	–	–	IC50 (GSK3β [3]; [5]): > 5000 nM; IC50 (GSK3α [4]; [6]): > 5000 nM
CC1(C)CC(=O)C2=C(C1)Nc1ncsc1[C@@]2(C)c1cccc(F)c1	–	–	12500	6230	–

Continued, in another order:

IC50 (GSK3β [3]) [nM]	IC50 (GSK3α [4]) [nM]	Structure (SMILES)	IC50 (GSK3β [1]) [nM]	IC50 (GSK3α [2]) [nM]	other results
353	130	CCC1(c2ccccc2)C2=C(Nc3ncsc31)C(C)CC(C)C2=O (stereo not shown) [Compound 2]	–	–	–
> 1670	419	CCC1(c2ccccc2)C2=C(CCCC2=O)Nc2ncsc21 (stereo not shown) [Compound 11]	–	–	–
418	184	CCCC1CC(=O)C2=C(C1)Nc1ncsc1C2(CC)c1ccccc1 (stereo not shown) [Compound 9]	–	–	–
234	41	CCC1(c2cccc(Br)c2)C2=C(CC(C)(C)CC2=O)Nc2ncsc21 (stereo not shown) [Compound 14]	–	–	–
> 5000	> 5000	CCC1(c2ccccc2)C2=C(CC(C)(C)CC2=O)Nc2nc(C)sc21 (stereo not shown) [Compound 15]	–	–	–
684	194	CCC1(c2ccccc2)C2=C(CC(C)CC2=O)Nc2ncsc21 (stereo not shown) [Compound 6]	–	–	–
627	174	CCC1(c2ccccc2)C2=C(Nc3ncsc31)C(C)(C)CCC2=O (stereo not shown) [Compound 4]	–	–	–
4350	1990	CCC1(c2ccccc2)C2=C(CC(C)(C)CC2=O)Nc2nc(Cl)sc21 (stereo not shown) [Compound 19]	–	–	–
592	171	CCC1CC(=O)C2=C(C1)Nc1ncsc1C2(CC)c1ccccc1 (stereo not shown) [Compound 7]	–	–	–
